Experimental data reported in patent US11478467B2 (priority 2017, dated 2022).
Where two headings read alike, the source gives them in different places.

Assays:
[1] = type: in vivo, rat; conditions: 10 mg/kg intraperitoneally, male SD rats
Protocol: Adult male SD rats were pretreated with the compound 146 or M1 (10 mg/kg intraperitoneally) and the brain and blood plasma were collected 30, 60, 120 and 240 min after M1 administration. The amount of compound in brain tissue extracts was measured using the UPLC/MS analysis.

CYP2D6 = CYP2D6 (Homo sapiens (Human), UniProt P10635); conditions: dextromethorphan as substrate; cited from earlier work
[2] = Pharmacokinetic study of sarpogrelate hydrochloride i.v. in rats; type: in vivo, rat; conditions: after sarpogrelate hydrochloride 2 mg/kg i.v.
Protocol: Pharmacokinetic study was performed in male Wistar rats equipped with the jugular vein cannulas. Sarpogrelate hydrochloride was formulated in Pharmasolv: PBS buffer (5:95) mixture and administered at the dose of 2 mg/kg intravenously. Blood samples were collected from the jugular vein using heparin as anticoagulant at the scheduled time-points: 5 min, 15 min, 30 min, 1 h, 1.5 h, 2 h, 4 h, and 6 h. An LC-MS/MS bioanalytical method was used for the simultaneous quantification of sarpogrelate and M1 in plasma samples. […] Formation of M1 metabolite of sarpogrelate was rapid as the highest M1 concentrations were measured at the first sampling time points.

[3] = system: Parkinson's disease psychosis; conditions: cited from earlier work
[4] = system: MK-801-induced hyperactivity; conditions: 0.1 and 0.3 mg/kg s.c.; MK-801 0.3 mg/kg i.p.; mice; cited from earlier work
[5] = system: locomotor activity, stereotypy, ataxia; conditions: rats, cited from earlier work; for PCP-elicited hyperactivity / motor behaviors after pretreatment: 10 mg/kg PCP; for behavioral effects given alone (locomotor hyperactivity, stereotypy, ataxia): DO 15-120 mg/kg, DEX 15-120 mg/kg, PCP 1.25-20 mg/kg
[6] = cited from earlier work; for basal insulin secretion: mouse or human islets or in vivo
NMDA receptors = conditions: compared to that of DEX; cited from earlier work
[7] = Blood glucose levels and oral glucose tolerance in rats; type: in vivo, rat; conditions: given alone, intraperitoneal
Protocol: Test substances were administered to male Wistar (Han) rats (180-280 g at the beginning of the experiments; Janvier Labs) housed in groups under free access to food and water. After overnight food deprivation, the tip of the tail was cut, each rat was weighed, housed individually and left without stress in a quiet room. Approximately 1 hour later, baseline blood glucose was measured from a drop of blood collected from the tail tip, using a commercially available glucose-meter (OneTouch®, Lifescan) and then rats received intraperitoneal injection of sarpogrelate and/or dextromethorphan and 30 min later blood glucose was measured again and rats immediately challenged with glucose at 2 g/kg by oral gavage. Then, blood glucose was measured at 6 time-points until 180 minutes post-glucose challenge.

[8] = system: rat primary mixed mesencephalic neuron-glia cultures; conditions: 1-10 micro M; cited from earlier work
[9] = cited from earlier work
[10] = system: PCP-induced hyperactivity; assay: Phencyclidine-induced hyperactivity in rats (sarpogrelate and dextromethorphan); type: in vivo, rat; conditions: dextromethorphan by itself
[11] = high doses; cited from earlier work
insomnia = conditions: human, in vivo; cited from earlier work
[12] = system: treatment-resistant major depressive disorder; conditions: in vivo; cited from earlier work
[13] = system: generalized anxiety disorder; conditions: human, in vivo; cited from earlier work
5-HT2A/5-HT2C receptors = conditions: in vivo; cited from earlier work
[14] = dose-range that covers therapeutically relevant exposures; cited from earlier work
dopamine D2 receptors = dopamine D2 receptors (Homo sapiens (Human), UniProt P14416); conditions: cited from earlier work
Sequence of dopamine D2 receptors (P14416 whole entry): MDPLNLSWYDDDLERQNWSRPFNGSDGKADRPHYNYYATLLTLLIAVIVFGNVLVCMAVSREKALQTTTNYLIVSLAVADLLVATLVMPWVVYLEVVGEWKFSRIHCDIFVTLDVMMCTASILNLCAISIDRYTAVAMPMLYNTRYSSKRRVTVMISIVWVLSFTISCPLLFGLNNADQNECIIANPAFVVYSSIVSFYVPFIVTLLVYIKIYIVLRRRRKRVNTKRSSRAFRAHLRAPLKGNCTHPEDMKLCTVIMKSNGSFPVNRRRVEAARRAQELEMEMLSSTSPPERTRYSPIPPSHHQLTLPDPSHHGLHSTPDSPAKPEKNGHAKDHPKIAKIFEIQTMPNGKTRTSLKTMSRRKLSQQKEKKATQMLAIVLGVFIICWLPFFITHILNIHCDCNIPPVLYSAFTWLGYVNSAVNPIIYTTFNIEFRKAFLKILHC

Sequence of CYP2D6 (P10635 whole entry): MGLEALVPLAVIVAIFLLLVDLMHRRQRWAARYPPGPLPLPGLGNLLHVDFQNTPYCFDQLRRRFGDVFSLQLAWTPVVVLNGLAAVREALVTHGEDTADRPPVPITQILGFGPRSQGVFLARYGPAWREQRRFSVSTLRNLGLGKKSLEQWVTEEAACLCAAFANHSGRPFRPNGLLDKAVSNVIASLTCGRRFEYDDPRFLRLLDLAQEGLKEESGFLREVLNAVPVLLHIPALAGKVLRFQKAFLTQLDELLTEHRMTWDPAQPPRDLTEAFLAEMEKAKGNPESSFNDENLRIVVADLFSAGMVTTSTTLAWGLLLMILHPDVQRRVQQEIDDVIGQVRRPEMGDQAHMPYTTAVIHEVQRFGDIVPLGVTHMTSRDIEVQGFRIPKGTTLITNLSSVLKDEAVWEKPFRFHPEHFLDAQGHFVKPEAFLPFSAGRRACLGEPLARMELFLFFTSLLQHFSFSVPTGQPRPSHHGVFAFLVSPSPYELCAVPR

## COc1cccc(CCc2ccccc2OCC(O)CN(C)C)c1 (racemic) [Compound 146, 1-(dimethylamino)-3-(2-(3-methoxyphenethyl)phenoxy)propan-2-ol]
[1]; 30, 60, 120 and 240 min
  total brain concentration vs blood concentration: significantly exceeded the blood concentration
[1]
  penetration into the brain: readily penetrates into the brain
CYP2D6
  inhibition type (Dixon plots): fit well to all competitive inhibition types
[2]
  Formation of M1 metabolite of sarpogrelate: rapid
[2]; plasma
  M1/sarpogrelate ratio: 2.98±0.597%

## CC(C)COc1ccc(CNC(=O)N(Cc2ccc(F)cc2)C2CCN(C)CC2)cc1 [ACP-103, N-(4-fluorophenylmethyl)-N-(1-methylpiperidin-4-yl)-N′-(4-(2-methylpropyloxy)phenylmethyl) carbamide (2R,3R)-dihydroxybutanedioate (2:1)]
[3]; compared with placebo
  night-time sleep and daytime wakefulness: improvements on night-time sleep and daytime wakefulness
[3]; patients with moderate to severe Parkinson's disease
  psychotic symptoms (hallucinations and delusions): significantly reduced psychotic symptoms
[4]
  MK-801-induced hyperactivity: significantly attenuated MK-801-induced hyperactivity

## CN1CC[C@@]23CCCC[C@@H]2[C@@H]1Cc1ccc(O)cc13 [DO, dextrorphan]
[5]
  PCP-elicited hyperactivity / motor behaviors after pretreatment: facilitated
  behavioral effects given alone (locomotor hyperactivity, stereotypy, ataxia): dose-dependent locomotor hyperactivity, stereotypy and ataxia
[5]; listed as dextrorphan
  PCP-elicited hyperactivity / motor behaviors after pretreatment: but not its metabolite dextrorphan
[6]
  basal insulin secretion: did not significantly alter basal insulin secretion
NMDA receptors
  affinity for NMDA receptors: substantially higher affinity

## COc1ccc2c(c1)[C@@]13CCCC[C@H]1[C@@H](C2)N(C)CC3 [dextromethorphan, 3-methoxy-17-methylmorphinan]
[7]
  blood glucose level (AUC 30-180 min after oral glucose 2 g/kg): significantly reduced blood glucose level
[5]
  PCP-elicited hyperactivity / motor behaviors after pretreatment: attenuate phencyclidine-induced motor behaviors
  behavioral effects given alone (locomotor hyperactivity, stereotypy, ataxia): induced moderate hyperactivity only at the higher doses
[5]; listed as DEX
  PCP-elicited hyperactivity / motor behaviors after pretreatment: dose-dependently inhibited
[6]; DEX via drinking water 4 mg/ml overnight, glucose i.p., mice
  glucose-induced plasma insulin concentrations and glucose tolerance: significantly higher glucose-induced plasma insulin concentrations and glucose tolerance
[6]; DEX via drinking water 4 mg/ml overnight, mice
  basal plasma insulin and fasting blood glucose concentrations: changed neither basal plasma insulin nor fasting blood glucose concentrations
[6]
  basal insulin secretion: did not significantly alter basal insulin secretion
[8]
  protection of dopamine neurons: protected dopamine neurons against lipopolysaccharide (LPS)-induced reduction of dopamine uptake
[9]; 270 mg DEX vs placebo
  area under the curve of blood glucose concentrations within the first 2 h of the OGTT (glucose AUC1-3 h): significantly (P<0.05) smaller
[9]; 60 and 270 mg DEX vs placebo
  maximal serum insulin concentrations following oral glucose intake: significantly (P<0.05) higher maximal serum insulin concentrations
[9]; single oral dose 60 or 270 mg, males with T2DM on metformin
  fasting serum insulin and fasting blood glucose concentrations: led to neither higher fasting serum insulin concentrations nor lower fasting blood glucose concentrations
[9]; up to a dose of 270 mg
  severe hypoglycemic events: did not provoke any severe hypoglycemic events
[10]; oral administration
  motor activity in PCP-treated rats: enhanced
[10]; subcutaneous administration
  motor activity in PCP-treated rats: reduced
[11]
  heart rate, blood pressure, temperature, and plasma bromide: mild elevations of heart rate, blood pressure, temperature, and plasma bromide

## CN(C)CCO/N=C(/C=C/c1ccc(O)cc1)c1ccccc1F [eplivanserin]
insomnia
  clinical efficacy in insomnia: demonstrated clinical efficacy in patients with insomnia

## CNC1(c2ccccc2Cl)CCCCC1=O (stereo not shown) [ketamine, 2-(2-chlorophenyl)-2-(methylamino)cyclohexan-1-one]
[12]
  antidepressant activity: rapid and robust antidepressant activity

## COC(=O)c1c2n(c3ccccc13)Cc1ccccc1N1CCN(C)CC21.Cl (stereo not shown) [serazepine]
[13]
  efficacy in generalized anxiety disorder: shown efficacy

## N,N-dimethyl-2-[[(1R,3S,4R)-4,7,7-trimethyl-3-phenyl-3-bicyclo[2.2.1] heptanyl] oxy]ethanamine [Compound 829]
5-HT2A/5-HT2C receptors
  down-regulation of 5-HT2A/5-HT2C receptors: does not induce down-regulation of these receptors
[14]
  prolactin: not found to elevate prolactin
Dopamine D2 receptors
  selectivity against dopamine D2 receptors: at least 10 fold
